“And” between values parts separate entries of the source, which are not always exact repeats. Identical values can stand only once.
Tests used:
Assay in all cases: CellTiter-Glo 2.0 cell viability, 7x7 combination dose response matrix, synergy scoring
Type in all cases: cell-based
CAL51 cell line = settings: CAL51
From the text: (§1) A study was undertaken to determine whether the combination of a GSPT1-directed MGD and an inhibitor of the PI3K/AKT/mTOR pathway could be effective in killing cancer cells and whether certain combination could elicit a greater than additive effect on cell killing.
(§2) FIG. 1 is a flow diagram of the method used to assess cancer cell killing by a combination of a GSPT1-directed MGD and an inhibitor of the PI3K/AKT/mTOR pathway. Certain of the materials and equipment used in the studies are presented in Table 3 and the cell lines used are presented in Table 4.
(§3) All assays were run in triplicate. Each 384-well plate accommodated six 7×7 dose response matrices (FIG. 2). All compound handling was performed using an Echo 650 Series Acoustic Liquid Handler, which enables fully automated, precise, contact-free acoustic transfer in volumes as low as 2.5 nL.
(§4) The following protocol was used for cell plating: • 1. Warm media to room temperature or 37° C. • 2. Prepare complete phenol-free media by adding 10% FBS+1% Pen-Strep to RPMI 1640 Medium or DMEM. • 3. Aspirate media from T175 tissue culture flask and rinse with 10 ml PBS. • 4. Aspirate PBS and add 2 mL 0.25% trypsin. Incubate the flask at 37° C. for 5 min or until cells are detached. • 5. Add 10 mL complete media to the flask to neutralize the trypsin, then collect cells in a 50 mL conical tube. • 6. Centrifuge cells at 300 g for 5 min. Aspirate media and suspend cell pellet in fresh media. Use cell strainer to strain cells into a new 50 mL conical tube. • 7. […] Mix 100 uL cell suspension with 100 uL trypan blue (1:1) and pipette 20 μL of the mixture into each of 2 counting chambers on a slide. Insert slide. • b. Adjust focus and record the live cell count. At least 2 independent measurements should be taken. […] Cell viability should be greater than 90%. […] Dilute cell suspension to the desired concentration (20000 cells/mL) using complete phenol-free media. Prepare 10 mL cell suspension per plate+an extra 10 mL for priming the liquid handler. • 9. Dispense cells into 384-well plates using the liquid handler at 25 uL/well (500 cells/well). 3 plates should be prepared per compound plate to be treated. • 10. Cells should be dispensed into columns 1-23 only. Media only (no cells) should be dispensed into column 24. • 11. Allow plates to rest at RT for 30 minutes before transferring to the incubator. Incubate cells overnight at 37° C., 95% humidity, and 5% CO2.
(§5) Compound plates were prepared as follows using an Echo 650 Series Acoustic Liquid Handler. • 1. A compound plate containing 7-point dose responses of each compound to be treated is first prepared from stock compounds. • 2. The cell plates are treated with compounds according to the following maps, where the first compound is added across all six 7 by 7 dose response matrices, and its concentration varies by row (FIG. 2; top matrix), whereas the second compound varies for each dose response matrix, and its concentration varies by column (FIG. 2; bottom matrix). Each cell plate receives one Compound A and six different Compound Bs. • 3. To prepare a compound plate, 384-well PP plate with stock compounds (highest concentration) is prepared. Compounds are diluted 1:1000 in the cell plates, e.g. 10 mM on compound plate will be 10 uM on cell plate. A 384-well LDV plate with pre-determined volumes of DMSO is prepared. Echo is used to dilute stock compounds from PP plate into LDV plate to prepare 7-point dose responses.
(§6) Compounds were added to the cells and cell viability was measured after 72 hour incubation using CellTiter-Glo 2.0 Cell Viability Assay (Promega): • 1. For a compound addition, Echo is used to transfer 25 nL from the compound plate wells to the cell plates according to the plate maps shown in FIG. 2. Cell plates are treated in triplicate. Each well of the cell plate has 25 uL media (1:1000 dilution). Incubate cells post-treatment at 37° C., 95% humidity, and 5% CO2 for 72 hrs (step 106). • 2. […]

MDA-MB-157 cell line = settings: first compound 0.41-100 nM
From the text: as §1, §2, §3, §4, §5, §6

MDA-MB-231 cell line = test system: MDA-MB-231 cell line
From the text: as §1, §2, §3, §4, §5, §6

NCI-H1155 cell line = settings: first compound 0.21-100 nM
From the text: as §1, §2, §3, §4, §5, §6

NCI-H2023 cell line = test system: NCI-H2023 cell line
From the text: as §1, §2, §3, §4, §5, §6

[1] = combined with Alpelisib 41-10000 nM, first compound 0.41-33.33 nM
[2] = combined with Alpelisib 41-10000 nM, first compound 0.41-100 nM
[3] = combined with Everolimus 41-10000 nM, first compound 0.41-100 nM
[4] = combined with GNE-477 41-10000 nM, first compound 0.41-100 nM
[5] = combined with HS173 41-10000 nM, first compound 0.41-100 nM
[6] = combined with KU-0063794 41-10000 nM, first compound 0.41-100 nM
[7] = combined with M2698 41-10000 nM, first compound 0.41-100 nM
[8] = combined with Serabelisib 41-10000 nM, first compound 0.41-100 nM
[9] = combined with Alpelisib 41-10000 nM
[10] = combined with Capivasertib 41-10000 nM
[11] = combined with Everolimus 41-10000 nM
[12] = combined with GNE-477 41-10000 nM
[13] = combined with KU-0063794 41-10000 nM
[14] = MDA-MB-231, combined with Alpelisib 41-10000 nM, first compound 0.41-100 nM
[15] = MDA-MB-231, combined with Capivasertib 41-10000 nM, first compound 0.41-100 nM
[16] = MDA-MB-231, combined with Everolimus 41-10000 nM, first compound 0.41-100 nM
[17] = MDA-MB-231, combined with GNE-477 41-10000 nM, first compound 0.41-100 nM
[18] = MDA-MB-231, combined with KU-0063794 41-10000 nM, first compound 0.41-100 nM
[19] = combined with Alpelisib 21-10000 nM
[20] = combined with Capivasertib 21-10000 nM
[21] = combined with Everolimus 2.1-1000 nM
[22] = combined with GNE-477 21-10000 nM
[23] = combined with KU-0063794 21-10000 nM
[24] = combined with M2698 21-10000 nM
[25] = NCI-H2023, combined with Alpelisib 21-10000 nM, first compound 0.21-100 nM
[26] = NCI-H2023, combined with Capivasertib 21-10000 nM, first compound 0.21-100 nM
[27] = NCI-H2023, combined with Everolimus 2.1-1000 nM, first compound 0.21-100 nM
[28] = NCI-H2023, combined with GNE-477 21-10000 nM, first compound 0.21-100 nM
[29] = NCI-H2023, combined with KU-0063794 21-10000 nM, first compound 0.21-100 nM
[30] = NCI-H2023, combined with M2698 21-10000 nM, first compound 0.21-100 nM

Cc1ccc(NC(=O)OCc2ccc3c(c2)C(=O)N(C2CCC(=O)NC2=O)C3)cc1Cl (stereo not drawn) [Compound 1-6, [2-(2,6-dioxopiperidin-3-yl)-3-oxo-2,3-dihydro-1H-isoindol-5-yl]methyl N-(3-chloro-4-methylphenyl)carbamate]
Mean Bliss synergy score (CAL51 cell line; [1]): 4.15 | Mean Loewe synergy score (CAL51 cell line; [1]): 7.89 | Mean Bliss synergy score (CAL51 cell line; [2]): 13.06 and 19.57 | Mean Loewe synergy score (CAL51 cell line; [2]): 11.36 and 7.04 | Mean Bliss synergy score (CAL51 cell line; combined with Capivasertib 41-10000 nM, first compound 0.41-100 nM): 24.03 and 20.68 | Mean Bliss synergy score (CAL51 cell line; [3]): 20.31 | Mean Loewe synergy score (CAL51 cell line; [3]): 22.83 | Mean Bliss synergy score (CAL51 cell line; [4]): 5.80 | Mean Loewe synergy score (CAL51 cell line; [4]): 6.34 | Mean Bliss synergy score (CAL51 cell line; [5]): 4.98 | Mean Loewe synergy score (CAL51 cell line; [5]): 1.89 | Mean Bliss synergy score (CAL51 cell line; [6]): 12.93 | Mean Loewe synergy score (CAL51 cell line; [6]): 8.26 | Mean Bliss synergy score (CAL51 cell line; [7]): 11.87 and 11.78 | Mean Loewe synergy score (CAL51 cell line; [7]): 12.09 and 12.43 | Mean Bliss synergy score (CAL51 cell line; [8]): 4.74 | Mean Loewe synergy score (CAL51 cell line; [8]): 0.94 | Mean Bliss synergy score (MDA-MB-157 cell line; [9]): 1.84 | Mean Loewe synergy score (MDA-MB-157 cell line; [9]): 3.29 | Mean Bliss synergy score (MDA-MB-157 cell line; [10]): 6.73 | Mean Loewe synergy score (MDA-MB-157 cell line; [10]): 5.04 | Mean Bliss synergy score (MDA-MB-157 cell line; [11]): 4.15 | Mean Loewe synergy score (MDA-MB-157 cell line; [11]): 9.01 | Mean Bliss synergy score (MDA-MB-157 cell line; [12]): 0.86 | Mean Loewe synergy score (MDA-MB-157 cell line; [12]): 4.66 | Mean Bliss synergy score (MDA-MB-157 cell line; [13]): 1.22 | Mean Loewe synergy score (MDA-MB-157 cell line; [13]): 5.42 | Mean Loewe synergy score (MDA-MB-157 cell line; combined with M2698 41-10000 nM): 5.62 and 4.44 | Mean Bliss synergy score (MDA-MB-231 cell line; [14]): 1.80 | Mean Loewe synergy score (MDA-MB-231 cell line; [14]): 5.93 | Mean Bliss synergy score (MDA-MB-231 cell line; [15]): 5.75 | Mean Loewe synergy score (MDA-MB-231 cell line; [15]): 7.02 | Mean Bliss synergy score (MDA-MB-231 cell line; [16]): 8.98 | Mean Loewe synergy score (MDA-MB-231 cell line; [16]): 11.33 | Mean Bliss synergy score (MDA-MB-231 cell line; [17]): 2.23 | Mean Loewe synergy score (MDA-MB-231 cell line; [17]): 5.29 | Mean Bliss synergy score (MDA-MB-231 cell line; [18]): 3.19 | Mean Loewe synergy score (MDA-MB-231 cell line; [18]): 6.78 | Mean Loewe synergy score (MDA-MB-231 cell line; MDA-MB-231, combined with M2698 41-10000 nM, first compound 0.41-100 nM): 4.77 and 5.02 | Mean Bliss synergy score (MDA-MB-231 cell line; combined with Everolimus (41 nM to 10 uM), MDA-MB-231 cell line, mean across dose response matrix, 72 hrs): 8.98 | Mean Bliss synergy score (NCI-H1155 cell line; [19]): 5.23 | Mean Loewe synergy score (NCI-H1155 cell line; [19]): 2.10 | Mean Bliss synergy score (NCI-H1155 cell line; [20]): 5.58 | Mean Loewe synergy score (NCI-H1155 cell line; [20]): 4.36 | Mean Bliss synergy score (NCI-H1155 cell line; [21]): −1.66 | Mean Loewe synergy score (NCI-H1155 cell line; [21]): 6.77 | Mean Bliss synergy score (NCI-H1155 cell line; [22]): 3.25 | Mean Loewe synergy score (NCI-H1155 cell line; [22]): 3.14 | Mean Bliss synergy score (NCI-H1155 cell line; [23]): 3.66 | Mean Loewe synergy score (NCI-H1155 cell line; [23]): 2.43 | Mean Bliss synergy score (NCI-H1155 cell line; [24]): 2.04 | Mean Loewe synergy score (NCI-H1155 cell line; [24]): 4.27 | Mean Bliss synergy score (NCI-H2023 cell line; [25]): 19.68 | Mean Loewe synergy score (NCI-H2023 cell line; [25]): 8.92 | Mean Bliss synergy score (NCI-H2023 cell line; [26]): 22.78 | Mean Loewe synergy score (NCI-H2023 cell line; [26]): 11.70 | Mean Bliss synergy score (NCI-H2023 cell line; [27]): 13.21 | Mean Loewe synergy score (NCI-H2023 cell line; [27]): 17.02 | Mean Bliss synergy score (NCI-H2023 cell line; [28]): 14.13 | Mean Loewe synergy score (NCI-H2023 cell line; [28]): 5.10 | Mean Bliss synergy score (NCI-H2023 cell line; [29]): 18.40 | Mean Loewe synergy score (NCI-H2023 cell line; [29]): 11.37 | Mean Bliss synergy score (NCI-H2023 cell line; [30]): 12.91 | Mean Loewe synergy score (NCI-H2023 cell line; [30]): 11.66 | Mean Bliss synergy score (NCI-H2023 cell line; combined with KU-0063794 (21 nM to 10 uM), NCI-H2023 cell line, mean across dose response matrix, 72 hrs): 18.40 | Mean Loewe synergy score (NCI-H2023 cell line; combined with M2698 (21 nM to 10 uM), NCI-H2023 cell line, mean across dose response matrix, 72 hrs): 11.66

Reference: patent publication US20260166045A1, “COMBINATION THERAPY COMPRISING GSPT1-DIRECTED MOLECULAR GLUE DEGRADERS AND PI3K/AKT/mTOR PATHWAY INHIBITORS” (Monte Rosa Therapeutics, Inc., priority 2022, published 2026)
